Reference: ChEMBL document CHEMBL4699592, “Nature-Inspired (di)Azine-Bridged Bisindole Alkaloids with Potent Antibacterial In Vitro and In Vivo Efficacy against Methicillin-Resistant Staphylococcus aureus” (J Med Chem, 2020)
Calls of active or inactive are those of the source. No cut-off for these calls is given here.

Experiments:
Staphylococcus aureus [1] = assay: Antibacterial activity against vancomycin-sensitive Staphylococcus aureus T144 infected in Balb/c mouse assessed as reduction in bacterial burden at 5 mg/kg applied topically measured after 12 days by colony counting method; format: functional, organism-based; conditions: time 12.0 day
[2] = test system: Mycobacterium tuberculosis; assay: Antibacterial activity against Mycobacterium tuberculosis H37Rv at 0.78 to 100 uM after 5 days by resazurin dye based fluorescence assay; format: functional, organism-based; conditions: dose microM 0.78-100, time 5.0 day
[3] = Solubility of compound in pH 7.7 DMSO:PBS solution; format: physicochemical; conditions: buffer
[4] = Cytotoxicity against human CLS-54 cells assessed as reduction in cell viability at >12.5 uM measured after 48 hrs by resazurin dye based fluorescence assay; conditions: cls-54, 48 h
Pseudomonas aeruginosa = assay: Synergistic antibacterial activity against Pseudomonas aeruginosa ATCC 27853 assessed as FICI after 24 hrs in presence of colistin by checkerboard assay; format: functional
Klebsiella pneumoniae = assay: Antibacterial activity against Klebsiella pneumoniae ATCC 700603 after 24 hrs by broth microdilution method; format: functional
Enterococcus faecium = assay: Antibacterial activity against vancomycin-resistant Enterococcus faecium ATCC 700221 at 0.78 to 100 uM after 24 hrs by broth microdilution method; format: functional, organism-based; conditions: dose microM 0.78-100, time 24.0 hrs
Enterococcus faecalis = assay: Antibacterial activity against Enterococcus faecalis ATCC 51299 at 0.78 to 100 uM after 24 hrs by broth microdilution method; format: functional, organism-based; conditions: dose microM 0.78-100, time 24.0 hrs
HEK293 = assay: Cytotoxicity against HEK293 cells assessed as reduction in cell viability at >12.5 uM measured after 48 hrs by resazurin dye based fluorescence assay; conditions: human, hek293, 48 h
Staphylococcus aureus [5] = assay: Bactericidal activity against […] Staphylococcus aureus ATCC 700699 assessed as reduction in bacterial viability at 5 fold MIC incubated for 6 hrs by time kill assay relative to control; format: functional
Acinetobacter baumannii = assay: Synergistic antibacterial activity against Acinetobacter baumannii ATCC BAA-1605 assessed as FIC after 24 hrs in presence of colistin by checkerboard assay relative to test compound MIC; format: functional

With Clc1ccc2[nH]cc(-c3cccc(-c4c[nH]c5ccc(Cl)cc45)n3)c2c1 the Activity (Staphylococcus aureus [1]) was “Active”, the Activity [2] was “Active” and the solubility [3] was “Insoluble”. The Activity [4] was “Toxic”, the “fractional inhibitory concentration index (FICI)” value (Pseudomonas aeruginosa) was “<=0.5625” and the MIC (Klebsiella pneumoniae) was > 100 µM. For the same molecule, the Activity (Enterococcus faecium) was “Active”, the Activity (Enterococcus faecalis) was “Active” and the Activity (HEK293) was “Toxic”. For the same molecule, the “fold change (FC)” value (Staphylococcus aureus [5]) was 10000 and the FIC (Acinetobacter baumannii) was “<=0.0625”.
